# From patent US12138303B2, “Staphylococcus pseudintermedius virulence factor compositions” (UNIVERSITY OF TENNESSEE RESEARCH FOUNDATION, priority 2017, dated 2024)
# Columns and labels:
# canine B cells [1] = experiment: B cell death (Sytox green, flow cytometry); format: cell-based, dog; conditions: 3.5 h incubation; ± SEM
# Procedure: (§1) A total of 100 μg of purified recombinant SpsQ or SpsQ-M was mixed with isolated peripheral blood mononuclear cells (PBMC) in 1 ml of RPMI medium supplemented with 10% fetal bovine serum and incubated for 1.5 h at 37° C. in a 5% CO2 incubator. To detect early phases of B cell apoptosis, phosphatidylserine was measured on the surface of cells using pacific blue-conjugated annexin (Thermo Scientific, USA Cat No. A35136). B cells were identified using phycoerythrin (PE) conjugated mouse anti-canine CD21 (clone: CA2.1D6) (BIO-RAD, USA Cat No. MCA1781PE) that recognizes canine CD21 (complement receptor type 2) on mature B lymphocytes. Stained B cells were analyzed using a flow cytometer (Attune acoustic focusing cytometer). B cells were also incubated with the same recombinant proteins as described above but for 3.5 h in order to detect B cell death. Cells were stained with Sytox green (Life Technologies, Inc., USA Cat No. 1776406) and PE-conjugated mouse anti-canine CD21. Gates were placed on cells positive for PE and these B cells were analyzed by flow cytometry.
# (§2) For flow cytometry analysis the cut-off for apoptosis or cell death was established using leukocytes incubated without SpsQ. Mean fluorescent intensity was determined from all B cells.
# dog IgA = experiment: ELISA reactivity with dog IgA; format: binding; conditions: compared to SpsQ and SpA
# Procedure: (§3) To test the reactivity of serum from a dog with chronic pyoderma, S. aureus SpA and S. pseudintermedius SpsQ and SpsQ-M were coated on ELISA plates (Corning, USA Cat No. 3590) at 2 μg/ml in PBS. They were incubated with serum at a dilution of 1:2000. Bound IgG, IgM, and IgA were detected by HRP-goat anti-dog IgG-heavy and light chain (Bethyl Laboratories, Inc., USA Cat No. A40-123-1), HRP-goat anti-dog IgM μ chain (Bethyl Laboratories, Inc., USA Cat No. A40-116-2), HRP-goat anti-dog IgA (Bethyl Laboratories, Inc., USA Cat No. A40-104P) at a dilution of 1:8000 in PBS-T. Dog whole IgG molecule (Rockland, USA Cat No. 004-0102-1000) was used for comparison to measure non-specific IgG binding.
# canine B cells [2] = experiment: B cell apoptosis (annexin, flow cytometry); format: cell-based, dog; conditions: 1.5 h
# Procedure: as §1, §2
# dog IgM = experiment: ELISA reactivity with dog IgM; format: binding; conditions: compared to SpsQ and SpA
# Procedure: as §3
# [3] = tested on: chicken anti-protein A antibody; experiment: ELISA antigenicity with HRP-chicken anti-protein A antibody; format: binding; conditions: coated protein
# Procedure: For measurement of the antigenicity of recombinant proteins, affinity-purified SpsQ and SpsQ-M were coated on ELISA plates (Corning, USA Cat No. 3590) at […] in PBS (pH 7.2). The plates were washed with PBS-T and incubated with HRP-chicken anti-protein A antibody (Gallus Immunotech, USA Cat No. APA) for 1 h at 37° C., then washed. For this and all subsequent ELISA assays, plates were washed three times with PBS-T between all incubations, bound antibodies were detected using TMB substrate (Thermo Scientific, USA Cat No. N301), reactions were stopped with 0.18 M sulphuric acid and optical density read at 450 nm on a plate reader (Bio TEK, USA Cat No. EL800). The experiment was repeated at least three times and a p-value of <0.05 was considered significant, which was the same for all the experiments unless mentioned otherwise.
# dog IgG = experiment: ELISA reactivity with dog serum / dog IgG; format: binding; conditions: compared to SpsQ and SpA
# Procedure: as §3
# canine blood PMNs [4] = experiment: Phagocytosis of pHrodo-labeled S. pseudintermedius 06-3228 in dog blood (flow cytometry); format: cell-based; conditions: 37° C., adenosine 15 μM, ADP analogue 500 μM, ZM241385 1 μM
# Procedure: (§4) Bacteria for the phagocytosis assay were labeled using a pHrodo™ phagocytosis particle labeling kit (Life technologies, P35369) (10). Briefly, overnight cultures of S. pseudintermedius 06-3228 and 08-1661 were diluted 1:100 into fresh TSB and grown for 3 hours at 37° C. Bacteria were centrifuged, washed twice, and diluted to 20 mg/mL wet weight in 0.1 M sodium bicarbonate, pH 8.5, and pHrodo™ dye was dissolved in DMSO at 10 mM. The bacteria were suspended at a final dye concentration of 0.5 mM. The inhibitory effect of SpAdsA on canine neutrophils was evaluated in blood samples by exposing the EDTA-whole blood samples to pHrodo™ dye-labeled S. pseudintermedius 06-3228 and 08-1661 for 30 and 60 minutes at 37° C. The RBCs were lysed using Red Blood Cell Lysing Buffer Hybri-Max™ (Sigma-Aldrich, Cat NO. R7757) followed by centrifugation and washing. The final cell pellet, containing leukocytes, was suspended in wash buffer and analyzed using a flow cytometer equipped with a 488-nm argon ion laser (Attune acoustic focusing cytometry).
# canine blood PMNs [5] = experiment: Phagocytosis of pHrodo-labeled S. pseudintermedius 08-1661 in dog blood (flow cytometry); format: cell-based; conditions: 37° C., adenosine 15 μM, ADP analogue 500 μM, A2A receptor antagonist
# Procedure: as §4
# [6] = tested on: S. pseudintermedius 08-1661; experiment: Bacterial survival in canine blood; format: cell-based, Staphylococcus pseudintermedius; conditions: adenosine 15 μM; 5′-(α, β-methylene) diphosphate 500 μM; ZM241385; 1, 1.5, 2 hours; versus bacteria alone
# Procedure: (§5) Overnight cultures of S. pseudintermedius 06-3228 and 08-1661 were diluted 1:100 into fresh TSB and grown for 3 hours at 37° C. Staphylococci were centrifuged 9000×g, washed twice, and diluted in PBS to yield an O.D 600 of 0.5. Then 100 μl of 4×10^6 CFU per ml of bacteria were mixed with 500 μl of fresh canine blood, collected in EDTA. The samples were incubated at 37° C. with 100 rpm shaking and harvested at 60, 90 and 120 minutes. They were incubated on ice for 30 minutes in 1 ml of Red Blood Cell Lysing Buffer Hybri-Max™ (Sigma-Aldrich, Cat NO. R7757), then bacteria were pelleted at 9,000×g at 4° C. and plated on tryptic soy agar (TSA) for enumeration of viable bacteria.
# [7] = tested on: S. pseudintermedius 06-3228; experiment: Bacterial survival in canine blood; format: cell-based, Staphylococcus pseudintermedius; conditions: adenosine 15 μM; 5′-(α, β-methylene) diphosphate 500 μM; ZM241385; 1, 1.5, 2 hours; versus bacteria alone
# Procedure: as §5
# canine PBMCs = experiment: PBMCs permeability assay (Sytox green); format: cell-based, dog; conditions: 100 μg, 30 min, relative to SpEX
# Procedure: (§6) PMNs and PBMCs were separated as previously described. PMNs and PBMCs were incubated with recombinant proteins (SpEX and SpEX-M) at concentration of 100 μg in a volume of 500 μl in RPMI medium supplemented with 10% fetal bovine serum in a 5% CO2 incubator for 30 min. The supernatant of S. pseudintermedius 06-3228 was harvested at log phase to test the toxic effect of secreted SpEX. PMNs and PBMCs were stained with 1 Sytox green (Life Technologies, Inc. Cat No. 1776406) for 30 min, washed twice with PBS (pH 7.2) and analyzed using a flow cytometer (Attune acoustic focusing cytometer) by gating on PMNs and PBMCs based on their side and forward scatter properties.
# (§7) To determine the protective effect of canine anti-SpEX-M on PMNs and PBMCs, recombinant S. pseudintermedius SpEX at concentration of 100 μg/ml in PBS (pH 7.2) was incubated for 30 minutes at 37° C. with serum from SpEX-M injected dogs. The experiment was run in duplicate and a p-value of <0.05 was considered significant.
# (§8) For flow cytometry analysis the cut-off for cell death was established using leukocytes incubated without SpEX. Mean fluorescent intensity was determined from all gated cells.
# canine PMNs [8] = experiment: PMNs permeability assay (Sytox green); format: cell-based, dog; conditions: 100 μg, 30 min, relative to SpEX
# Procedure: as §6, §7, §8
# clinically normal dogs = experiment: Antibody response of dogs injected with SpEX-M (ELISA); format: in vivo, dog; conditions: 20 μg subcutaneous, three weekly injections; sera days −7, 8, 15, 29; versus pre-injection sera
# Procedure: Recombinant SpEX-M (SEQ ID NO:12) produced in E. coli was purified using affinity chromatography (as above) and endotoxin concentration was measured using a ToxinSensor™ Chromogenic LAL Endotoxin Assay Kit (Genscript, Cat. No. L00350). Recombinant SpEX-M at 20 μg each/0.5 cc in phosphate buffered saline (PBS) (pH 7.2) were injected in the lateral thorax by the subcutaneous route, into three clinically normal dogs. Injections were given once every 7 days for a total of three injections with a control dog receiving PBS (pH 7.2) only. Blood (6 cc) was collected from a jugular vein 4 times, on days −7, 8, 15 and 29 (relative to injections). […]
# For measurement of recombinant protein antigenicity, SpEX and SpEX-M were coated separately onto ELISA plates (Corning, Cat No. 3590) at 2 μg/ml in PBS. The plates were washed with 0.05% PBS-T and incubated with two-fold serial diluted serum from dogs (injected with recombinant proteins) for 1 h at 37° C., then bound IgG was detected using HRP-conjugated goat anti-dog IgG-heavy and light chain (Bethyl Laboratories, Inc. Cat No. A40-123-1). ELISA assays plates were washed three times with PBS-T between all incubations, bound antibodies were detected using TMB substrate (Thermo Scientific, Cat No. N301), reactions were stopped with 0.18 M sulphuric acid and optical density read at 450 nm on a plate reader (Bio TEK, EL800). […]
# canine PMNs [9] = experiment: Binding of biotin labelled wild type and attenuated LukS and LukF to canine PMNs; format: cell-based, dog; conditions: biotin labelled proteins, 30 minutes
# Procedure: Purified recombinant S. pseudintermedius wild type and attenuated LukS and LukF at 500 μg/ml in PBS (pH 7.2) were incubated with 50 μl of 10 mM EZ-Link Sulfo-NHS-LC-Biotin reagent (equal to 20-fold molar excess of biotin) (Thermo Scientific, Cat No. 21327) for 30 min at room temperature. Excess biotin was removed using an Amicon Ultra-0.5 Centrifugal Filter Unit with a 30 kDa molecular weight cut-off (Milipore sigma, Cat No. UFC5030). The biotin-labeled proteins were stored at −20° C. until further use.
# To test the binding of wild type and attenuated LukS and LukF to canine PMNs, biotin labelled recombinant proteins were incubated with PMNs from a clinical healthy dog for 30 minutes at room temperature, the cells were washed, then PMNs were incubated with 1:500 dilution of avidin-FITC conjugate (Sigma-Aldrich, A2050) at room temperature for 30 minutes in the dark. Unbound conjugate was removed by washing and the amount of binding was determined using a flow cytometer (Attune acoustic focusing cytometer) by gating on PMNs based on their side and forward scatter properties.
compound,measurement,setting,value
"SpsQ-M: attenuated non-toxigenic S. pseudintermedius protein A with Q5K, Q6K, D32A, D33A in each Ig binding domain",Sytox MFI reduction compared to that of SpsQ,canine B cells [1],519065±128292
same,binding to IgA,dog IgA,significantly lower binding
same,apoptotic effect on B cells,"canine B cells [2]; 100 μg protein, PBMC",low apoptotic effect
same,mean+/−SEM fluorescent intensity (MFI) difference between SpsQ and SpsQ-M,canine B cells [2],2052±285.2
same,binding to IgM,dog IgM,significantly lower binding
same,reactivity with chicken anti-protein A (antigenicity),[3],strong reactivity
same,binding to commercial dog IgG,dog IgG,significantly lower binding
Nc1ncnc2c1ncn2[C@@H]1O[C@H](CO)[C@@H](O)[C@H]1O [adenosine],"phagocytosis, mean MFI","canine blood PMNs [4]; 06-3228, 30 minutes","89,583"
same,"phagocytosis, mean MFI","canine blood PMNs [4]; 06-3228, 60 minutes","711,453"
same,"phagocytosis, mean MFI","canine blood PMNs [5]; 08-1661, 30 minutes","375,737"
same,"phagocytosis, mean MFI","canine blood PMNs [5]; 08-1661, 60 minutes","764,921"
same,survival of S. pseudintermedius 08-1661 in canine blood,[6],significantly promoted
same,survival of S. pseudintermedius 06-3228 in canine blood,[7],significantly promoted
"SpEX-M: attenuated SpEX with substitutions D 102A, T125P, T206P and R217A",killing effect on PBMCs of dogs,canine PBMCs,diminished killing effect
same,killing effect on PMNs,canine PMNs [8],diminished killing effect
same,IgG against S. pseudintermedius SpEX-M and SpEX in sera of injected dogs,clinically normal dogs,reached the highest level on day 29
Nc1nc(NCCc2ccc(O)cc2)nc2nc(-c3ccco3)nn12 [ZM241385],"phagocytosis, mean MFI","canine blood PMNs [4]; 06-3228, 30 minutes",241513
same,"phagocytosis, mean MFI","canine blood PMNs [4]; 06-3228, 60 minutes",no significant difference
same,"phagocytosis, mean MFI","canine blood PMNs [5]; 08-1661, 30 minutes","1,306,729"
same,"phagocytosis, mean MFI","canine blood PMNs [5]; 08-1661, 60 minutes","2,924,203"
same,survival of S. pseudintermedius 08-1661 in canine blood,[6],significantly decreased at all of time points
same,survival of S. pseudintermedius 06-3228 in canine blood,[7],significantly decreased at all of time points
"LukS-M: attenuated Leukotoxin S with substitutions T57F, K128A and S239A",binding to canine leukocytes,canine PMNs [9],bound to canine leukocytes without causing any significant killing
LukF-M: attenuated Leukotoxin F with substitutions S59D and N65A,binding to canine leukocytes,canine PMNs [9],bound to canine leukocytes without causing any significant killing
